Measurements: PubChem BioAssay AID330 (DTP/NCI, 2004)
Values joined by “and” are separate entries in the source; they are usually repeats but may differ in a detail not shown here. Equal entries are not always repeated. Inconclusive results and toxic doses are left out.

Tested on: P388 leukemia ip, CD2F1 mice, survival T/C
Assay: NCI In Vivo Anticancer Drug Screen. Data for tumor model P388 Leukemia (intraperitoneal) in CD2F1 (CDF1) mice
Details: endpoint: median survival time, higher = longer survival
How it was run: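 Mice carrying the transplanted tumor received test compound or vehicle. Survival was recorded in each group, and the value is the treated-group measurement divided by that of the vehicle-treated control group.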

[1] = dose: 50.0 mg/kg/injection, schedule: Q01DX005 (ip), vehicle: Klucel (hydroxypropylcellulose) (HPC)
[2] = dose: 100.0 mg/kg/injection, schedule: Q01DX005 (ip), vehicle: Klucel (hydroxypropylcellulose) (HPC)
[3] = dose: 60.0 mg/kg/injection, schedule: Q01DX005 (ip), vehicle: Klucel (hydroxypropylcellulose) (HPC)
[4] = dose: 120.0 mg/kg/injection, schedule: Q01DX005 (ip), vehicle: Klucel (hydroxypropylcellulose) (HPC)
[5] = dose: 240.0 mg/kg/injection, schedule: Q01DX005 (ip), vehicle: Klucel (hydroxypropylcellulose) (HPC)
[6] = dose: 12.5 mg/kg/injection, schedule: Q01DX009 (ip), vehicle: Klucel (hydroxypropylcellulose) (HPC)
[7] = dose: 25.0 mg/kg/injection, schedule: Q01DX009 (ip), vehicle: Klucel (hydroxypropylcellulose) (HPC)
[8] = dose: 50.0 mg/kg/injection, schedule: Q01DX009 (ip), vehicle: Klucel (hydroxypropylcellulose) (HPC)
[9] = dose: 200.0 mg/kg/injection, schedule: Q01DX005 (ip), vehicle: Klucel (hydroxypropylcellulose) (HPC)
[10] = dose: 100.0 mg/kg/injection, schedule: Q01DX009 (ip), vehicle: Klucel (hydroxypropylcellulose) (HPC)

## C=C(C)/C(=C/C(=O)OCC)Sc1ccccc1
dose: 100.0 mg/kg/injection, schedule: Q04DX003 (ip), vehicle: Klucel (hydroxypropylcellulose) (HPC)
  T/C: 106 % of control
dose: 200.0 mg/kg/injection, schedule: Q04DX003 (ip), vehicle: Klucel (hydroxypropylcellulose) (HPC)
  T/C: 106 % of control
dose: 400.0 mg/kg/injection, schedule: Q04DX003 (ip), vehicle: Klucel (hydroxypropylcellulose) (HPC)
  T/C: 102 % of control

## C[C@@H]1C[C@H]2OC(=O)[C@@]3(C)CCC[C@@](C)([C@@H]23)[C@@]1(O)CCc1ccoc1
dose: 12.5 mg/kg/injection, schedule: Q01DX005 (ip), vehicle: Klucel (hydroxypropylcellulose) (HPC)
  T/C: 108 % of control
dose: 25.0 mg/kg/injection, schedule: Q01DX005 (ip), vehicle: Klucel (hydroxypropylcellulose) (HPC)
  T/C: 105 % of control
[1]
  T/C: 106 % of control
[2]
  T/C: 97 % of control

## Nc1ccc(F)cc1S
dose: 100.0 mg/kg/injection, schedule: Q01DX009 (ip), vehicle: saline with Tween-80
  T/C: 118 % of control

## COC(COC(=O)N1CCN(C=O)CC1)C1=C(N2CC2)C(=O)C(C)=C(N2CC2)C1=O (stereo unspecified)
dose: 3.13 mg/kg/injection, schedule: Q01DX005 (ip), vehicle: saline
  T/C: 177 % of control

## CS(=O)(=O)OCC1OCC(OS(C)(=O)=O)C1O (stereo unspecified)
dose: 50.0 mg/kg/injection, schedule: Q01DX001 (ip), vehicle: Klucel (hydroxypropylcellulose) (HPC)
  T/C: 101 % of control
dose: 100.0 mg/kg/injection, schedule: Q01DX001 (ip), vehicle: Klucel (hydroxypropylcellulose) (HPC)
  T/C: 102 % of control
dose: 200.0 mg/kg/injection, schedule: Q01DX001 (ip), vehicle: Klucel (hydroxypropylcellulose) (HPC)
  T/C: 101 % of control

## C[CH2][Sn]([CH2]C)([O]S(=O)(=O)CC12CCC(CC1=O)C2(C)C)[O]S(=O)(=O)CC12CCC(CC1=O)C2(C)C
dose: 1.56 mg/kg/injection, schedule: Q01DX009 (ip), vehicle: saline
  T/C: 102 % of control
dose: 3.12 mg/kg/injection, schedule: Q01DX009 (ip), vehicle: saline
  T/C: 119 % of control

## CC1(/C=N/NC(N)=O)NC(=O)NC1=O (stereo unspecified)
dose: 50.0 mg/kg/injection, schedule: Q01DX005 (ip), vehicle: saline with Tween-80
  T/C: 96 % of control
dose: 100.0 mg/kg/injection, schedule: Q01DX005 (ip), vehicle: saline with Tween-80
  T/C: 103 % of control
dose: 200.0 mg/kg/injection, schedule: Q01DX005 (ip), vehicle: saline with Tween-80
  T/C: 96 % of control

## Nc1ccccc1CN1C(=O)CCC1=O
dose: 50.0 mg/kg/injection, schedule: Q01DX009 (ip), vehicle: saline
  T/C: 105 % of control
dose: 100.0 mg/kg/injection, schedule: Q01DX009 (ip), vehicle: saline
  T/C: 101 % of control
dose: 200.0 mg/kg/injection, schedule: Q01DX009 (ip), vehicle: saline
  T/C: 99 % of control

## COC(=O)c1c2cc(C(C)(C)C)cc-2c(N(C)C)nc(N(C)C)c1C(=O)OC
[3]
  T/C: 95 % of control
[4]
  T/C: 95 % of control

## [Br][Sn]([CH2][Sn]([Br])([c]1ccccc1)[c]1ccccc1)([c]1ccccc1)[c]1ccccc1
dose: 6.25 mg/kg/injection, schedule: Q01DX005 (ip), vehicle: Klucel (hydroxypropylcellulose) (HPC)
  T/C: 110 % of control

## C[n+]1c(C2(O)CCCCCCCCCCC2)sc2ccccc21
[3]
  T/C: 95 % of control
[4]
  T/C: 100 % of control
[5]
  T/C: 115 % of control

## COC1(OC)OC(c2ccccc2)=C(c2ccccc2)C(C#N)(C#N)C1(OC)OC
[3]
  T/C: 91 % of control
[4]
  T/C: 88 % of control
[5]
  T/C: 94 % of control

## COc1cc2cc(c1Cl)N1CC(=O)C(C)(O)C(=O)N(C)C(C)C(=O)OC(CC1=O)C1(C)OC1C(C)C1CC(O)(NC(=O)O1)C(OC)/C=C\C=C(\C)C2OC (stereo unspecified)
dose: 2.0 micrograms/kg/injection, schedule: Q01DX009 (ip), vehicle: distilled water + alcohol
  T/C: 151 % of control
dose: 4.0 micrograms/kg/injection, schedule: Q01DX009 (ip), vehicle: distilled water + alcohol
  T/C: 153 % of control and 168 % of control
dose: 16.0 micrograms/kg/injection, schedule: Q01DX009 (ip), vehicle: distilled water + alcohol
  T/C: 210 % of control

## CN(C/C=C/CN(C)N=O)N=O
[6]
  T/C: 116 % of control
[7]
  T/C: 118 % of control
[8]
  T/C: 96 % of control

## CCCCCCCCCCCCCC(CCCCCCCC)CCCCCCCC
dose: 50.0 mg/kg/injection, schedule: Q01DX001 (ip), vehicle: saline sonified
  T/C: 100 % of control
dose: 100.0 mg/kg/injection, schedule: Q01DX001 (ip), vehicle: saline sonified
  T/C: 113 % of control
dose: 200.0 mg/kg/injection, schedule: Q01DX001 (ip), vehicle: saline sonified
  T/C: 100 % of control

## CC(C)(C)/C=C/N1N=NC(c2ccccc2)(c2ccccc2)C1=O
[1]
  T/C: 91 % of control
[2]
  T/C: 92 % of control
[9]
  T/C: 96 % of control

## C[C@@H]1C[C@H](C)S(=O)[C@H](C)S1 (stereo partly specified)
dose: 100.0 mg/kg/injection, schedule: Q04DX002 (ip), vehicle: saline
  T/C: 101 % of control
dose: 200.0 mg/kg/injection, schedule: Q04DX002 (ip), vehicle: saline
  T/C: 102 % of control
dose: 400.0 mg/kg/injection, schedule: Q04DX002 (ip), vehicle: saline
  T/C: 100 % of control

## Cn1c(=O)n(-c2ccccc2)c(=O)c2ccccc21
[10]
  T/C: 100 % of control
dose: 200.0 mg/kg/injection, schedule: Q01DX009 (ip), vehicle: Klucel (hydroxypropylcellulose) (HPC)
  T/C: 110 % of control
dose: 400.0 mg/kg/injection, schedule: Q01DX009 (ip), vehicle: Klucel (hydroxypropylcellulose) (HPC)
  T/C: 109 % of control

## COc1ccc(/C=C/C(=N/NC(=O)c2ccccc2)C(C)CN(C)C)cc1 (stereo unspecified)
[3]
  T/C: 104 % of control
[4]
  T/C: 111 % of control

## CCCCOC(=O)c1ccc2nc(NC(=O)OC)[nH]c2c1
dose: 100.0 mg/kg/injection, schedule: Q04DX002 (ip), vehicle: saline with Tween-80
  T/C: 100 % of control
dose: 200.0 mg/kg/injection, schedule: Q04DX002 (ip), vehicle: saline with Tween-80
  T/C: 90 % of control
dose: 400.0 mg/kg/injection, schedule: Q04DX002 (ip), vehicle: saline with Tween-80
  T/C: 91 % of control

## CC(=O)O[C@H]1C(=O)[C@]2(C)[C@@H](OC(C)=O)CC3OC[C@@]3(OC(C)=O)[C@H]2[C@H](OC(=O)c2ccccc2)[C@]2(O)C[C@H](OC(=O)[C@H](OC(C)=O)[C@@H](NC(=O)c3ccccc3)c3ccccc3)C(C)=C1C2(C)C (stereo partly specified)
dose: 2.5 mg/kg/injection, schedule: Q01DX005 (ip), vehicle: DMSO
  T/C: 100 % of control
dose: 5.0 mg/kg/injection, schedule: Q01DX005 (ip), vehicle: DMSO
  T/C: 102 % of control and 118 % of control
dose: 10.0 mg/kg/injection, schedule: Q01DX005 (ip), vehicle: DMSO
  T/C: 102 % of control and 124 % of control
dose: 12.5 mg/kg/injection, schedule: Q01DX005 (ip), vehicle: DMSO
  T/C: 107 % of control
dose: 20.0 mg/kg/injection, schedule: Q01DX005 (ip), vehicle: DMSO
  T/C: 121 % of control
dose: 25.0 mg/kg/injection, schedule: Q01DX005 (ip), vehicle: DMSO
  T/C: 120 % of control
dose: 40.0 mg/kg/injection, schedule: Q01DX005 (ip), vehicle: DMSO
  T/C: 178 % of control
dose: 50.0 mg/kg/injection, schedule: Q01DX005 (ip), vehicle: DMSO
  T/C: 124 % of control
dose: 100.0 mg/kg/injection, schedule: Q01DX005 (ip), vehicle: DMSO
  T/C: 120 % of control

## COc1cc2c(cc1OC)C1CC(=O)CCN1CC2 (stereo unspecified)
[6]
  T/C: 111 % of control
[7]
  T/C: 106 % of control
[8]
  T/C: 101 % of control
[10]
  T/C: 107 % of control

## ONC(=Nc1ccc2ccccc2c1)C(=Nc1ccc2ccccc2c1)NO
[1]
  T/C: 95 % of control
[2]
  T/C: 90 % of control
[9]
  T/C: 94 % of control

## C/C(C=O)=C\c1ccc(N(C)C)cc1
[3]
  T/C: 101 % of control
[4]
  T/C: 101 % of control
[5]
  T/C: 100 % of control
